Source: the NIST ThermoML archive (doi:10.1016/j.fluid.2008.06.019)

Key:
[1] = 298.15 K; 101.33 kPa; Liquid
[2] = xn = mol fraction of the nth substance listed; details: 298.15 K, 101 kPa, Liquid

CC(C)OC(C)C [diisopropyl ether]
Details	mass density [kg/m3]
[1]	719.17

CC(C)OC(C)C [diisopropyl ether] + CCCO
[2]
Details	mass density [kg/m3]
x1 = 0.0508	794.63
x1 = 0.0999	789.64
x1 = 0.2	779.84
x1 = 0.2998	770.67
x1 = 0.3993	762.07
x1 = 0.4999	754.19
x1 = 0.6006	746.71
x1 = 0.7007	739.41
x1 = 0.8001	732.66
x1 = 0.9015	725.59
x1 = 0.9514	722.22

CC(C)OC(C)C [diisopropyl ether] + Cc1ccccc1
[2]
Details	mass density [kg/m3]
x1 = 0.05	853.94
x1 = 0.0995	845.89
x1 = 0.2004	829.97
x1 = 0.2999	814.46
x1 = 0.4001	799.53
x1 = 0.5003	784.92
x1 = 0.6001	770.99
x1 = 0.7004	757.31
x1 = 0.8003	744.27
x1 = 0.9003	731.28
x1 = 0.9498	725.19

CCCO [propan-1-ol]
Details	mass density [kg/m3]
[1]	800.61

Cc1ccccc1 [toluene]
Details	mass density [kg/m3]
[1]	862.23

Cc1ccccc1 [toluene] + CCCO
[2]
Details	mass density [kg/m3]
x2 = 0.0491	859.7
x2 = 0.0987	857.27
x2 = 0.2003	852.39
x2 = 0.2995	847.48
x2 = 0.4006	842.21
x2 = 0.5001	836.7
x2 = 0.6001	830.71
x2 = 0.7005	824.13
x2 = 0.8001	817.01
x2 = 0.9006	809.12
x2 = 0.9497	805
